For orientation: IC50 means the concentration that gives 50% inhibition.

Test [1] deals with T1, FAK (Homo sapiens, UniProt Q05397). Briefly: biochemical.
The target of test [2] is T1, FAK. Briefly: Cell-based capture ELISA for inhibition of FAK autophosphorylation [pY397] in MiaPaCa2 cells. As for the experimental part: Cell-Based Assays for Inhibition of FAK Autophosphorylation: MiaPaCa2 and U87MG
ELISA kit from Invitrogen (KHO0441).
Reagents Provided in Biosource FAK [pY397]
The cells were then suspended in cell assay medium.
A general note: An ELISA detects its analyte on a solid surface through an enzyme-linked reagent.

Where [3] appears, read: MIA-PaCa2 cells on fibronectin, 2 h, no plasma, read-out: Mean FAK Cell Mechanistic IC50 MIA-PaCa2.
[4] abbreviates: MIA-PaCa2 cells, + 50% human plasma, read-out: Mean FAK Cell Mechanistic IC50 + 50% hP MIA-PaCa2.
Where [5] appears, read: MIA-PaCa2 cells, + 50% mouse plasma (Table 2), read-out: Mean FAK Cell Mechanistic IC50 + 50% mP MIA-PaCa2.

T1 sequence (Q05397 whole entry): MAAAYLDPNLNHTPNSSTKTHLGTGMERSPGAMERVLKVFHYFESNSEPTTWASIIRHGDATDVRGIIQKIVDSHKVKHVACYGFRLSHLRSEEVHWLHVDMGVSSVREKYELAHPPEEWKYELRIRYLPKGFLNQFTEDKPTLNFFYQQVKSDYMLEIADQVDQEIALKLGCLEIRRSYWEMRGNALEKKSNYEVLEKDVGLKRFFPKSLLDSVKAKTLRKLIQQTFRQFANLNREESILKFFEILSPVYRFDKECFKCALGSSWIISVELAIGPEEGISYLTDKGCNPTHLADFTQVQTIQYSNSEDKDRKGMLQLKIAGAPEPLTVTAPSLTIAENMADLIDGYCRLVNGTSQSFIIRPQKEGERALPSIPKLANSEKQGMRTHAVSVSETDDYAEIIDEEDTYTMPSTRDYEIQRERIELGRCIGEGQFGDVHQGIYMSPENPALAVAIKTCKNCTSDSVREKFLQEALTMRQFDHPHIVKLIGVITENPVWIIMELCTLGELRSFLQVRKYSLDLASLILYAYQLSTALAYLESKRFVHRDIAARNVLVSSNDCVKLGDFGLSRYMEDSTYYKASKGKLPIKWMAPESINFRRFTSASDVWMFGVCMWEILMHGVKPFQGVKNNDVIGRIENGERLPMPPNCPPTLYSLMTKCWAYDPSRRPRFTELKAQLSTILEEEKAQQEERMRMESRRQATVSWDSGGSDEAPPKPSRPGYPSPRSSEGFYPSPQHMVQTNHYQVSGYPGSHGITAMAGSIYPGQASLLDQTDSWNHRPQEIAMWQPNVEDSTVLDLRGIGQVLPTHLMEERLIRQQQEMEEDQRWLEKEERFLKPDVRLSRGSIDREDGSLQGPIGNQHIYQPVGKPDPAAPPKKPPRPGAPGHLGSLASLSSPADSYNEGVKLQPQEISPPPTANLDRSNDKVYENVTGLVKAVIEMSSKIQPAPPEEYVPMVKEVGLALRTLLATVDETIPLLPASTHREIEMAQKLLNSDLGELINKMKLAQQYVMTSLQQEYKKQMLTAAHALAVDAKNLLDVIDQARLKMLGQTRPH

Consider `CCCCOP(=O)(Cc1ccc(Nc2ncc(C(F)(F)F)c(NCc3cccnc3N(C)S(C)(=O)=O)n2)cc1)OCCCC` [Example 26, Dibutyl [4-({4-[({2-[methyl(methylsulfonyl)amino]pyridin-3-yl}methyl)amino]-5-(trifluoromethyl)pyrimidin-2-yl}amino)benzyl]phosphonate], for which the IC50 is less than 1000 nM in test [1], less than 1000 nM in test [2] (setting [3]), less than 1000 nM in test [2] (setting [4]) and 1000 to 10000 nM in test [2] (setting [5]).

Consider `CCCOP(=O)(Cc1ccc(Nc2ncc(C(F)(F)F)c(NCc3cccnc3N(C)S(C)(=O)=O)n2)cc1)OCCC` [Example 28, dipropyl [4-({4-[({2-[methyl(methylsulfonyl)amino]pyridin-3-yl}methyl)amino]-5-(trifluoromethyl)pyrimidin-2-yl}amino)benzyl]phosphonate], for which the IC50 in test [1], in test [2] (setting [3]), in test [2] (setting [4]) and in test [2] (setting [5]) was less than 1000 nM each time.

As for `CCC(C)OP(=O)(Cc1ccc(Nc2ncc(C(F)(F)F)c(NCc3cccnc3N(C)S(C)(=O)=O)n2)cc1)OC(C)CC` (stereo not drawn) [Example 29, dibutan-2-yl [4-({4-[({2-[methyl(methylsulfonyl)amino]pyridin-3-yl}methyl)amino]-5-(trifluoromethyl)pyrimidin-2-yl}amino)benzyl]phosphonate], the IC50 in test [1] was less than 1000 nM; in test [2] (setting [3]), less than 1000 nM; in test [2] (setting [4]) it was 1000 to 10000 nM; in test [2] (setting [5]), 1000 to 10000 nM.

`CC(C)COP(=O)(Cc1ccc(Nc2ncc(C(F)(F)F)c(NCc3cccnc3N(C)S(C)(=O)=O)n2)cc1)OCC(C)C` [Example 30, bis(2-methylpropyl) [4-({4-[({2-[methyl(methylsulfonyl)amino]pyridin-3-yl}methyl)amino]-5-(trifluoromethyl)pyrimidin-2-yl}amino)benzyl]phosphonate]: the half-inhibitory concentration (IC50) in test [1] is less than 1000 nM; in test [2] (setting [3]), 1000 to 10000 nM; in test [2] (setting [4]) it was 1000 to 10000 nM; in test [2] (setting [5]), 1000 to 10000 nM.

For `CN(c1ncccc1CNc1nc(Nc2ccc(CP3(=O)OCCCO3)cc2)ncc1C(F)(F)F)S(C)(=O)=O` [Example 31, N-methyl-N-[3-({[2-({4-[(2-oxido-1,3,2-dioxaphosphinan-2-yl)methyl]phenyl}amino)-5-(trifluoromethyl)pyrimidin-4-yl]amino}methyl)pyridin-2-yl]methanesulfonamide], the IC50 in test [1], in test [2] (setting [3]), in test [2] (setting [4]) and in test [2] (setting [5]) was less than 1000 nM throughout.

With `CN(c1ncccc1CNc1nc(Nc2ccc(CP3(=O)OCC(C)(C)CO3)cc2)ncc1C(F)(F)F)S(C)(=O)=O` [Example 32, N-[3-({[2-({4-[(5,5-dimethyl-2-oxido-1,3,2-dioxaphosphinan-2-yl)methyl]phenyl}amino)-5-(trifluoromethyl)pyrimidin-4-yl]amino}methyl)pyridin-2-yl]-N-methylmethanesulfonamide], the IC50 in test [1], in test [2] (setting [3]), in test [2] (setting [4]) and in test [2] (setting [5]) was less than 1000 nM each time.

Turning to `CN(c1ncccc1CNc1nc(Nc2ccc(CP(=O)(OCCc3ccsc3)OCCc3ccsc3)cc2)ncc1C(F)(F)F)S(C)(=O)=O` [Example 33, bis[2-(thiophen-3-yl)ethyl] [4-({4-[({2-[methyl(methylsulfonyl)amino]pyridin-3-yl}methyl)amino]-5-(trifluoromethyl)pyrimidin-2-yl}amino)benzyl]phosphonate], the figures for the concentration for half-maximal inhibition (IC50) in test [1] and in test [2] (setting [5]) were less than 1000 nM and greater than 10000 nM, respectively.

Regarding `CN(c1ncccc1CNc1nc(Nc2ccc(CP(=O)(OCC3CCC3)OCC3CCC3)cc2)ncc1C(F)(F)F)S(C)(=O)=O` [Example 34, bis(cyclobutylmethyl) [4-({4-[({2-[methyl(methylsulfonyl)amino]pyridin-3-yl}methyl)amino]-5-(trifluoromethyl)pyrimidin-2-yl}amino)benzyl]phosphonate], the figures for the IC50 in test [1] and in test [2] (setting [5]) were less than 1000 nM and 1000 to 10000 nM, respectively.

As to `CC(C)OP(=O)(Cc1cccc(Nc2ncc(C(F)(F)F)c(NCc3cccnc3N(C)S(C)(=O)=O)n2)c1)OC(C)C` [Example 35, Dipropan-2-yl [3-({4-[({2-[methyl(methylsulfonyl)amino]pyridin-3-yl}methyl)amino]-5-(trifluoromethyl)pyrimidin-2-yl}amino)benzyl]phosphonate], the half-inhibitory concentration (IC50) in test [1] is less than 1000 nM; in test [2] (setting [5]), 1000 to 10000 nM.

`COP(=O)(OC)c1ccc(Nc2ncc(C(F)(F)F)c(NCc3cccnc3N(C)S(C)(=O)=O)n2)cc1` [Example 36, Dimethyl [4-({4-[({2-[methyl(methylsulfonyl)amino]pyridin-3-yl}methyl)amino]-5-(trifluoromethyl)pyrimidin-2-yl}amino)phenyl]phosphonate]: the IC50 in test [1] and in test [2] (setting [5]) was less than 1000 nM throughout.

In the case of `CCCOP(=O)(OCCC)c1ccc(Nc2ncc(C(F)(F)F)c(NCc3cccnc3N(C)S(C)(=O)=O)n2)cc1` [Example 37, dipropyl [4-({4-[({2-[methyl(methylsulfonyl)amino]pyridin-3-yl}methyl)amino]-5-(trifluoromethyl)pyrimidin-2-yl}amino)phenyl]phosphonate], the values for the IC50 in test [1] and in test [2] (setting [5]) were less than 1000 nM and 1000 to 10000 nM, respectively.

On to `CC(C)OP(=O)(OC(C)C)c1ccc(Nc2ncc(C(F)(F)F)c(NCc3cccnc3N(C)S(C)(=O)=O)n2)cc1` [Example 38, dipropan-2-yl [4-({4-[({2-[methyl(methylsulfonyl)amino]pyridin-3-yl}methyl)amino]-5-(trifluoromethyl)pyrimidin-2-yl}amino)phenyl]phosphonate], for which the IC50 in test [1] is less than 1000 nM; in test [2] (setting [5]), 1000 to 10000 nM.

Turning to `CCOP(=O)(OCC)c1cccc(Nc2ncc(C(F)(F)F)c(NCc3cccnc3N(C)S(C)(=O)=O)n2)c1` [Example 39, diethyl [3-({4-[({2-[methyl(methylsulfonyl)amino]pyridin-3-yl}methyl)amino]-5-(trifluoromethyl)pyrimidin-2-yl}amino)phenyl]phosphonate], the figures for the IC50 in test [1] and in test [2] (setting [5]) were less than 1000 nM and 1000 to 10000 nM, respectively.

For the molecule `CCOP(=O)(O)c1ccc(Nc2ncc(C(F)(F)F)c(NCc3cccnc3N(C)S(C)(=O)=O)n2)cc1` [Example 40, Ethyl hydrogen [4-({4[({2-[methyl(methylsulfonyl)amino]pyridin-3-yl}methyl)amino]-5-(trifluoromethyl)pyrimidin-2-yl}amino)phenyl]phosphonate], the IC50 in test [1] is less than 1000 nM; in test [2] (setting [3]), 1000 to 10000 nM; in test [2] (setting [4]) it was 1000 to 10000 nM.

For `CCOP(=O)(O)Cc1ccc(Nc2ncc(C(F)(F)F)c(NCc3cccnc3N(C)S(C)(=O)=O)n2)cc1` [Example 42, Ethyl hydrogen [4-({4-[({2-[methyl(methylsulfonyl)amino]pyridin-3-yl}methyl)amino]-5-(trifluoromethyl)pyrimidin-2-yl}amino)benzyl]phosphonate], the IC50 was less than 1000 nM in test [1], 1000 to 10000 nM in test [2] (setting [3]) and 1000 to 10000 nM in test [2] (setting [4]).

In the case of `CN(c1ncccc1CNc1nc(Nc2cccc(CP(=O)(O)O)c2)ncc1C(F)(F)F)S(C)(=O)=O` [Example 43, [3-({4-[({2-[Methyl(methylsulfonyl)amino]pyridin-3-yl}methyl)amino]-5-(trifluoromethyl)pyrimidin-2-yl}amino)benzyl]phosphonic acid], the IC50 in test [1] was less than 1000 nM; in test [2] (setting [3]), 1000 to 10000 nM; in test [2] (setting [4]) it was 1000 to 10000 nM; in test [2] (setting [5]) it was 1000 to 10000 nM.
